Our source for the TGI and GI50 values is PubChem BioAssay (NCI).

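96-well plates; 48 h exposure; 5 concentrations. Endpoints by linear interpolation between flanking doses. Not reached: highest tested concentration assigned. GI50 marks 50% less growth. TGI: total growth inhibition.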

Test systems include CAKI-1 renal; HS 578T breast; KM12 colon; OVCAR-4 ovarian; OVCAR-8 ovarian; PC-3 prostate; SK-MEL-5 melanoma; SN12C renal; SW-620 colon; CCRF-CEM leukemia.
What all share (assay): growth of human tumour cells (NCI), 48 h

As to `O=C1C=CC(=Nc2cccc3c(N=C4C=CC(=O)O4)cccc23)O1`, the TGI with CAKI-1 renal is 35.5 µM; in the assay on HS 578T breast, more than 100 µM; with KM12 colon, more than 100 µM; in the assay with OVCAR-4 ovarian, more than 100 µM; in the assay on OVCAR-8 ovarian, 41.1 µM; in the assay on PC-3 prostate, more than 100 µM. In addition, the TGI in the assay with SK-MEL-5 melanoma was more than 100 µM; with SN12C renal, 77.9 µM; with SW-620 colon, 34.3 µM.

As to `CN(C)C=NC1CCC(C(C)(C)C)CC1` (stereo not given), the TGI with CAKI-1 renal was 33.1 µM; in the assay on HS 578T breast it was 42 µM; in the assay on OVCAR-4 ovarian, 51.1 µM; with OVCAR-8 ovarian, 28.9 µM; in the assay on PC-3 prostate it was 30.3 µM; in the assay on SK-MEL-5 melanoma, 31 µM. The TGI with SN12C renal was determined as 34.6 µM; in the assay on SW-620 colon, 34.4 µM.

Regarding `Clc1ccc2ncc(-c3cccc(NC4CNC4)n3)n2c1`, the GI50 in the assay with CAKI-1 renal is 4.51 µM; in the assay on CCRF-CEM leukemia, 3.62 µM; in the assay on HS 578T breast, 3.91 µM; in the assay on KM12 colon, 0.686 µM; with OVCAR-8 ovarian, 3.92 µM; in the assay with PC-3 prostate it was 4.55 µM. Moreover, the GI50 in the assay with SK-MEL-5 melanoma was 16.1 µM; in the assay with SN12C renal it was 1.58 µM; with SW-620 colon it was 2.92 µM. The TGI was 84.1 µM with CAKI-1 renal; 72.7 µM with CCRF-CEM leukemia; 20.6 µM with HS 578T breast; more than 100 µM in the assay on KM12 colon; 84.3 µM in the assay on OVCAR-8 ovarian; 80.9 µM in the assay with PC-3 prostate. In addition, the figures for the TGI in the assay with SK-MEL-5 melanoma, in the assay on SN12C renal and in the assay with SW-620 colon were 76.1 µM, more than 100 µM and 15.8 µM, respectively.

With `O=C(COc1ccc(OCC(=O)N2C(=O)CN(c3ccccc3)C2=S)cc1)N1C(=O)CN(c2ccccc2)C1=S`, the GI50 in the assay with CAKI-1 renal was more than 25 µM; with HS 578T breast it was more than 25 µM; in the assay on KM12 colon, more than 25 µM; with OVCAR-4 ovarian it was more than 25 µM; with OVCAR-8 ovarian it was more than 25 µM; in the assay with SK-MEL-5 melanoma, more than 100 µM. Also, the GI50 with SN12C renal and in the assay on SW-620 colon was more than 25 µM each time. In addition, the TGI in the assay on CAKI-1 renal, in the assay with HS 578T breast, with KM12 colon, in the assay with OVCAR-4 ovarian, in the assay with OVCAR-8 ovarian and with PC-3 prostate was more than 100 µM throughout. Moreover, the TGI in the assay with SK-MEL-5 melanoma, with SN12C renal and with SW-620 colon was more than 100 µM in each case.

As for `Cc1ccc(/C=C/c2c(C(=O)/C=C/c3ccc(Cl)cc3)c(C)nc3ccccc23)cc1`, the GI50 is 1.27 µM in the assay with CAKI-1 renal; 2.75 µM in the assay with HS 578T breast; 1.87 µM in the assay on KM12 colon; 3.97 µM in the assay with OVCAR-4 ovarian; 2.17 µM in the assay on OVCAR-8 ovarian; 2.2 µM in the assay with PC-3 prostate. Moreover, the GI50 was 1.62 µM in the assay on SK-MEL-5 melanoma and 1.9 µM in the assay on SW-620 colon. For the same compound, the TGI in the assay with CAKI-1 renal was 2.74 µM; in the assay with HS 578T breast, 8.66 µM; with KM12 colon, 3.77 µM; in the assay with OVCAR-4 ovarian it was 17.9 µM; with OVCAR-8 ovarian, 6.46 µM; with PC-3 prostate, 6.42 µM. In addition, the TGI worked out at 3 µM in the assay with SK-MEL-5 melanoma and 5.11 µM in the assay on SW-620 colon.

With `O=S(=O)(c1ccccc1)N1CN2CN(C1)CN(S(=O)(=O)c1ccccc1)C2`, the TGI in the assay with CAKI-1 renal, with KM12 colon, in the assay on OVCAR-4 ovarian, in the assay on OVCAR-8 ovarian, with PC-3 prostate and in the assay with SK-MEL-5 melanoma was more than 100 µM throughout. Further, the TGI in the assay on SN12C renal and in the assay on SW-620 colon was more than 100 µM each time.

Turning to `CC(=O)[CH-]C(=O)c1ccccc1.CC(=O)[CH-]C(=O)c1ccccc1.CC(C)CCC[C@H](C)C1CCC2[C@@H]3CC=C4C[C@@H]([O-])CC[C@]4(C)C3CC[C@@]21C.CC(C)CCC[C@H](C)C1CCC2[C@@H]3CC=C4C[C@@H]([O-])CC[C@]4(C)C3CC[C@@]21C.Cl.[Ti+4]` (stereo not given in full), the GI50 in the assay with CAKI-1 renal, in the assay with CCRF-CEM leukemia, in the assay with KM12 colon, in the assay on OVCAR-4 ovarian, in the assay on OVCAR-8 ovarian and with SK-MEL-5 melanoma was more than 25 µM in each case. Moreover, the GI50 in the assay with SN12C renal and with SW-620 colon was more than 25 µM each time. Besides, the TGI in the assay on CAKI-1 renal, with CCRF-CEM leukemia, in the assay with KM12 colon, in the assay on OVCAR-4 ovarian, in the assay on OVCAR-8 ovarian and in the assay on SK-MEL-5 melanoma was more than 25 µM throughout. For the same compound, the TGI in the assay with SN12C renal and with SW-620 colon was more than 25 µM in each case.

`CCOc1ccc(OCC)c([P+](c2ccccc2)(c2ccccc2)c2ccccc2)c1`: the TGI with CAKI-1 renal worked out at 6.1 µM; in the assay with CCRF-CEM leukemia, 14.7 µM; in the assay on KM12 colon, 10.1 µM; in the assay on OVCAR-4 ovarian it was 29 µM; with OVCAR-8 ovarian it was 12.5 µM; with SK-MEL-5 melanoma it was 1.14 µM. The TGI in the assay on SN12C renal is 5.61 µM; in the assay on SW-620 colon it was 13.1 µM.

Turning to `COc1cc(/C=C/C(=O)N2CCC=CC2=O)cc(OC)c1OC`, the GI50 in the assay with CCRF-CEM leukemia is 2.12 µM; in the assay with HS 578T breast it was 5.36 µM; in the assay on KM12 colon, 3.18 µM; with OVCAR-4 ovarian, 3.11 µM; in the assay with OVCAR-8 ovarian, 2.86 µM; with PC-3 prostate, 7.36 µM. In addition, the values for the GI50 with SK-MEL-5 melanoma, with SN12C renal and with SW-620 colon were 3.35 µM, 2.64 µM and 2.51 µM, respectively. The TGI stood at 6.29 µM with CCRF-CEM leukemia; 43.6 µM with HS 578T breast; 12.8 µM with KM12 colon; 17.4 µM with OVCAR-4 ovarian; 8.17 µM in the assay on OVCAR-8 ovarian; 28.5 µM with PC-3 prostate. The TGI came to 12 µM with SK-MEL-5 melanoma, 7.84 µM in the assay with SN12C renal and 6.61 µM in the assay on SW-620 colon.

Regarding `O=Cc1c(-c2ccccc2)[nH]c2ccccc2c1=O`, the TGI in the assay on CAKI-1 renal was more than 100 µM; in the assay on HS 578T breast, 98.9 µM; in the assay with KM12 colon, more than 100 µM; in the assay with OVCAR-4 ovarian it was more than 100 µM; with OVCAR-8 ovarian it was more than 100 µM; in the assay on PC-3 prostate, more than 100 µM. The values for the TGI with SK-MEL-5 melanoma, with SN12C renal and in the assay with SW-620 colon were 53.9 µM, more than 100 µM and more than 100 µM, respectively.

In the case of `CN(C)CCn1cnc2ncccc2c1=O`, the TGI in the assay on CAKI-1 renal, in the assay on CCRF-CEM leukemia, in the assay with KM12 colon, in the assay with OVCAR-4 ovarian, with OVCAR-8 ovarian and in the assay on SK-MEL-5 melanoma was more than 100 µM in each case. Besides, the TGI with SN12C renal and in the assay with SW-620 colon was more than 100 µM in each case.
